Data: US7053234B2 (Amgen Inc., priority 2000, dated 2006)
Converted amounts (≈) assume the structure as drawn.

What was measured:
[1] = biological target: T1, Sigma^70 saturated E. coli RNA Polymerase (Escherichia coli, UniProt P0A8T7+P0A8V2); assay: RNA polymerase inhibition assay (E. coli enzyme); type: biochemical; conditions: Table 1; enzyme not named, method uses E. coli RNA polymerase; read-out: IC50
T1 construct: purchased Epicenter
Procedure: The compounds of the present invention can be evaluated for antibacterial activity in a variety of assay formats known to those of skill in art. The specific assays used to select the most appropriate compound for use will typically depend on the targeted bacteria or infection. One common assay involves evaluation of the compounds as RNA polymerase inhibitors. In this assay, buffer (250 mM KCl, 5% Glycerol, 10 mM MgCl2, 0.1 mg/ml BSA) is combined with 6 mM B-M.E., PT5 DNA template, and 1.3 ug/rxn Sigma^70 saturated E. coli RNA Polymerase (Epicenter). The compound is then added in a manner not to exceed 5% DMSO. Nucleotide triphosphates are then added at the following concentration: 250 uM ATP, […] and UTP with 100 uM cold CTP and 50 uM alpha ^32P CTP. The mixture is incubated for 10 min at about 37° C. A [2×] loading buffer is added and the mixture is then run on a 6% urea denaturing PAGE until bromophenol blue reaches the edge of plate. The gel is soaked (about 20 minutes in 10% MeOH and 10% acetic acid, to remove urea), then dried (about 55 minutes at about 85° C. (BioRad Gel Drier)) and exposed to a Phospho Imaging Plate for 1 hour. The plate is then read on a Fujix Bas1000 Imaging System and quantified using MacBas v2.0 software. An IC50 (in uM) can be calculated as the concentration of a drug which reduces the enzyme activity to 50% of the control.

[2] = system: B. su; assay: MIC determination, B. su; type: cell-based; conditions: Table 1, 16 hours at 37° C. in LB medium, read-out: B. su (bacterial MIC)
Procedure: (§1) For MIC determinations for selected bacteria, log phase growing bacteria are re-suspended at 1×10^5 bacteria per mL in LB medium. The compound is added and two-fold dilutions are made. The final volume in the 96-well plate is about 100 uL. The plate is incubated at 37° C. in the dark with shaking. After 16 hours of incubation, growth is monitored by reading A600 or by visual inspection. MIC is defined as the minimum concentration of drug resulting in inhibition of visible growth of bacterial under the conditions described (above) in National Committee for Clinical Laboratory Standards 1993. Methods for dilution antimicrobial susceptibility tests for bacteria that grow aerobically. Approved standard M7-A3; National Committee for Clinical Laboratory Standards: Villanova, Pa.

[3] = system: S. aureus; assay: MIC determination, S. aureus; type: cell-based; conditions: Staphylococcus aureus; Table 1; MIC, 16 hours at 37° C. in LB medium; read-out: S. au (bacterial MIC)
Procedure: The compound is added and two-fold dilutions are made. The final volume in the 96-well plate is about 100 uL. The plate is incubated at 37° C. in the dark with shaking. After 16 hours of incubation, growth is monitored by reading A600 or by visual inspection. […] Methods for dilution antimicrobial susceptibility tests for bacteria that grow aerobically. Approved standard M7-A3; National Committee for Clinical Laboratory Standards: Villanova, Pa.

[4] = system: E. coli (tolC); assay: MIC determination, E. coli (tolC); type: cell-based; conditions: Escherichia coli, 16 h, read-out: E. c(tolC) (bacterial MIC)
Procedure: as §1

T1 sequence (P0A8V2 whole entry): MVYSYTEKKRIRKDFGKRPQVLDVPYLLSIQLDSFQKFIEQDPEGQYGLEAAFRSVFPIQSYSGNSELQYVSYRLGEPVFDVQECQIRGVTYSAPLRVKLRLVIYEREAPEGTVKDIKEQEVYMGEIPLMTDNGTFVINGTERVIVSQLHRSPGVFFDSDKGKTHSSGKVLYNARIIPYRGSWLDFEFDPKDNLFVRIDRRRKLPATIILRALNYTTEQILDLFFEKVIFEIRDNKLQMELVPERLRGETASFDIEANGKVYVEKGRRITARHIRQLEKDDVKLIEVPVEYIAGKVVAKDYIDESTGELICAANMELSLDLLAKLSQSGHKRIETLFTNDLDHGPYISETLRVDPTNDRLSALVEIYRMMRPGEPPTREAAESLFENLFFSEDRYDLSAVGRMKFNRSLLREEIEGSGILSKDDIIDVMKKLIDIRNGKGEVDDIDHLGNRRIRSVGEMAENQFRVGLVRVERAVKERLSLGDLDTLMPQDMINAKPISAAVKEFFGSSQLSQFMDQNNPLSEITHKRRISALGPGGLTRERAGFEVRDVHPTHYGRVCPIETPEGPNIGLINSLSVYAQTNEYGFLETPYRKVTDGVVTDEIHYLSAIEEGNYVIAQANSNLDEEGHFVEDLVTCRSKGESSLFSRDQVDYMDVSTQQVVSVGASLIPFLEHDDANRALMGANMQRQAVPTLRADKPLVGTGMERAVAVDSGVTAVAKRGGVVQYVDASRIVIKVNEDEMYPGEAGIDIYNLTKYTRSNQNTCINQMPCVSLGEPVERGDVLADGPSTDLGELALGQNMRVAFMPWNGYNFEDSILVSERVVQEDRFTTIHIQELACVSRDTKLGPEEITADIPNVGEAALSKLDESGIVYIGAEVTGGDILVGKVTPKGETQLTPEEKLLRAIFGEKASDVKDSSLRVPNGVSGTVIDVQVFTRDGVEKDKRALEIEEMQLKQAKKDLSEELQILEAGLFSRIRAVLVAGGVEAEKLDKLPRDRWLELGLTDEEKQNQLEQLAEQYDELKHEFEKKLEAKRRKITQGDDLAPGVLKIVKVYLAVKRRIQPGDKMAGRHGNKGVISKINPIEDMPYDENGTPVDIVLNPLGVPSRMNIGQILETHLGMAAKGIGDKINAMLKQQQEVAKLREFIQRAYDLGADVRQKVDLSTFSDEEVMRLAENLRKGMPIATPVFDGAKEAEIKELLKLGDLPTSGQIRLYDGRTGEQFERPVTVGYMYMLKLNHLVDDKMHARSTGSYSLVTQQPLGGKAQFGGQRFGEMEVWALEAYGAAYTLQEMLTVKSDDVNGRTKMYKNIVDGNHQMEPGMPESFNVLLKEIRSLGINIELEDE
T1 sequence (P0A8T7 whole entry): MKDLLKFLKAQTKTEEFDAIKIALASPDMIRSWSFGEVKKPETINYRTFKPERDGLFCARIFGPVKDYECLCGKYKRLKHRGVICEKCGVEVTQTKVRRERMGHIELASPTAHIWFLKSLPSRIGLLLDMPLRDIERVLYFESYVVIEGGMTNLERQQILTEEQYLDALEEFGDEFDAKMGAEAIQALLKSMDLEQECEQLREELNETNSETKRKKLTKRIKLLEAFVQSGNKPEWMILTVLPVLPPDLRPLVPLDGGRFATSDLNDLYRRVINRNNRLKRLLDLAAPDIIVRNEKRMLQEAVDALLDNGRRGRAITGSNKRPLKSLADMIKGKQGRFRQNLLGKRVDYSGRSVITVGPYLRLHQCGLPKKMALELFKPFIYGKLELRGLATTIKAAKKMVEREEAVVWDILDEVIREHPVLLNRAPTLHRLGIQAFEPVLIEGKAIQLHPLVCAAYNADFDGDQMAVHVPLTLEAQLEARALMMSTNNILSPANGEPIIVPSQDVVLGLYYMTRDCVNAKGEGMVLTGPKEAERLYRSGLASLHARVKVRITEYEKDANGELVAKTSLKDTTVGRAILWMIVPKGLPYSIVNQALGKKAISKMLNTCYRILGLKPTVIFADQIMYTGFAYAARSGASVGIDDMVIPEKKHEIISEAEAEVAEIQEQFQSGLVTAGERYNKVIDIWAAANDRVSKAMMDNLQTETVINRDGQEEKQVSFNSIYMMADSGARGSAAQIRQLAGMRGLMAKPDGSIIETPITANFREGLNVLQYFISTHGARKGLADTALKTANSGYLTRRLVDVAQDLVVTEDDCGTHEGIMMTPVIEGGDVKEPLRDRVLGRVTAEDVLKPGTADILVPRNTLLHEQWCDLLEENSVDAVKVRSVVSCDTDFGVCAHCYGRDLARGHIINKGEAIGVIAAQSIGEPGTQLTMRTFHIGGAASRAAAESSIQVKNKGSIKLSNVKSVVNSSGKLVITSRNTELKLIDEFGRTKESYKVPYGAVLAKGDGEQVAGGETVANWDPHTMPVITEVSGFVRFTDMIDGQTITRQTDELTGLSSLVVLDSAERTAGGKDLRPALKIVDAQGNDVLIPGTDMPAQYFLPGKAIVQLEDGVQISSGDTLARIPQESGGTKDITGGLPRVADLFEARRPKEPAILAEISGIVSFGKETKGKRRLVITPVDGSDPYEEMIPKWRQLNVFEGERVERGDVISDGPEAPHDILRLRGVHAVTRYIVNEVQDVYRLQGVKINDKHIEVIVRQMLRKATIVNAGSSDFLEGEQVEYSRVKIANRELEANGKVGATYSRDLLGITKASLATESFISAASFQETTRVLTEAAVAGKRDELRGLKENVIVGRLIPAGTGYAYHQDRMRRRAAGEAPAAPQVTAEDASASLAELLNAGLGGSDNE
T1 sequence (P0A7Z4 whole entry partner): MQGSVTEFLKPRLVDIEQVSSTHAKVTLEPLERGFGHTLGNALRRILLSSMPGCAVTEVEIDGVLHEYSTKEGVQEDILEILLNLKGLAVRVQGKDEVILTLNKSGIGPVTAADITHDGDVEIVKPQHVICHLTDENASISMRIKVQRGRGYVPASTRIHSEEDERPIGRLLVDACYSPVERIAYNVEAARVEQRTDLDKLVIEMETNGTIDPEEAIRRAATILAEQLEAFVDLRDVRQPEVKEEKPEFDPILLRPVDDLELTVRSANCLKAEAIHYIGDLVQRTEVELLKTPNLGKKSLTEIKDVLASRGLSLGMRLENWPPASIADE
T1 sequence (P0A800 whole entry partner): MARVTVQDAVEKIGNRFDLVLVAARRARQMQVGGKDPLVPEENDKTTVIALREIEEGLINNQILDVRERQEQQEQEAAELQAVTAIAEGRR
T1 sequence (P00579 whole entry partner): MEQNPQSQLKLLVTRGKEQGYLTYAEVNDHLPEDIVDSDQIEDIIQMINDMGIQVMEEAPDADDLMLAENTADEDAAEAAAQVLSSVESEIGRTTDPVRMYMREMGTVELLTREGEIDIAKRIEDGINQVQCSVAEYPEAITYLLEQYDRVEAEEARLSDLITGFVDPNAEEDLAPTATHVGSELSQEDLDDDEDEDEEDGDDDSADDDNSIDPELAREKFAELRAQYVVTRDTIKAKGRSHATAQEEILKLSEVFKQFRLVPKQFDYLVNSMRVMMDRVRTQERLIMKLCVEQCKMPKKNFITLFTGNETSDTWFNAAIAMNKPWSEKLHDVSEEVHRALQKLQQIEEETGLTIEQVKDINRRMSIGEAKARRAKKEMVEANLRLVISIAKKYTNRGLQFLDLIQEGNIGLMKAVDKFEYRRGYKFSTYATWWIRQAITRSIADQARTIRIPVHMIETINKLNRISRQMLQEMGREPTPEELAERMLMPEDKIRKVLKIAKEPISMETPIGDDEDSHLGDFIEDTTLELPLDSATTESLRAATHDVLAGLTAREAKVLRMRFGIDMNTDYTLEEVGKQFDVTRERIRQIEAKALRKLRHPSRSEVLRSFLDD

Structure (SMILES)	IC50 [1] [µM]	MIC [2] [µM]	MIC [3] [µM]	MIC [4] [µM]
ON=C(Nc1cccc(Br)c1)c1cccc(C(F)(F)F)c1 [R′=3-CF3, R″=H, R′″=3-Br]	10 to 50	< 40	40 to 125 (≈ 14.4 to 44.9 µg/mL)	< 40
N#Cc1cccc(NC(=NO)c2cccc(C(F)(F)F)c2)c1 [R′=3-CF3, R″=H, R′″=3-CN]	> 50	> 125	> 125	40 to 125 (≈ 12.2 to 38.2 µg/mL)
ON=C(Nc1cccc(F)c1)c1cccc(C(F)(F)F)c1 [R′=3-CF3, R″=H, R′″=3-F]	10 to 50	40 to 125 (≈ 11.9 to 37.3 µg/mL)	40 to 125 (≈ 11.9 to 37.3 µg/mL)	< 40
ON=C(Nc1cccc(Oc2ccccc2)c1)c1cccc(C(F)(F)F)c1 [R′=3-CF3, R″=H, R′″=3-OPh]	> 50	< 40	< 40	< 40
ON=C(Nc1cccc(F)c1)c1ccc(Cl)c(Cl)c1 [R′=3-Cl, R″=4-Cl, R′″=3-F]	10 to 50	40 to 125 (≈ 12 to 37.4 µg/mL)	40 to 125 (≈ 12 to 37.4 µg/mL)	< 40
ON=C(Nc1cccc(Cl)c1)c1cccc(OC(F)(F)F)c1 [R′=3-OCF3, R″=H, R′″=3-Cl]	10 to 50	< 40	40 to 125 (≈ 13.2 to 41.3 µg/mL)	< 40
ON=C(Nc1cccc(Cl)c1)c1ccc(Cl)cc1 [R′=4-Cl, R″=H, R′″=3-Cl]	> 50	40 to 125 (≈ 11.2 to 35.1 µg/mL)	40 to 125 (≈ 11.2 to 35.1 µg/mL)	< 40
